Experimental data: patent US20240382409A1, “COMPOSITION FOR ANTI-AGING AND SKIN IMPROVEMENT, COMPRISING COMPLEX OF INDIAN GOOSE-BERRY EXTRACT AND BARLEY SPROUT EXTRACT (lB COMPLEX) AS ACTIVE INGREDIENT” (HLSCIENCE CO., LTD, priority 2021, published 2024)
In brackets after ≈: the same amount, converted by molar mass.

Experiment: Anti-oxidation test: DPPH radical scavenging activity
Assay type: biochemical
Details: positive control
Method: In order to investigate the anti-oxidant effect using Examples 1 to 7 and Comparative examples 1 to 2, the DPPH (2,2-diphenyl-1-picryl hydrazyl) radical scavenging activity was evaluated.
The Examples 1 to 7 and Comparative examples 1 to 2 were mixed with 55 μM DPPH solution 450 μl by concentration and then reacted at 4° C. for 30 minutes. After completing the reaction, each sample was placed in a 96-well plate and the absorbance of samples was measured at 520 nm using a micro-plate reader. Then, a sample untreated group was used as a control group, and the free radical scavenging activity (%) of the sample was calculated as Equation 1 below.
Then, as a positive control scavenging radicals, ascorbic acid was used, and the concentration of ascorbic acid when the free radical scavenging activity was 50% was shown as 1.63 μg/mL.
IC50 means the concentration of sample when the free radical scavenging activity of the treated sample is 50%. Table 5 above summarizes the free radical scavenging activity in 5 μg/mL of each sample. […] It could be confirmed that the DPPH radical scavenging activity of Example 5 was the most excellent among them.

O=C1O[C@H]([C@@H](O)CO)C(O)=C1O [Ascorbic acid, ascorbic acid]
IC50 (concentration when the free radical scavenging activity is 50%): 1.63 µg/mL (≈ 9.25 µM)
